Where a name gives a salt, the structure may show the parent alone.

Sigma non-opioid intracellular receptor 1 (Cavia porcellus), sequence (Q60492 whole entry, looked up): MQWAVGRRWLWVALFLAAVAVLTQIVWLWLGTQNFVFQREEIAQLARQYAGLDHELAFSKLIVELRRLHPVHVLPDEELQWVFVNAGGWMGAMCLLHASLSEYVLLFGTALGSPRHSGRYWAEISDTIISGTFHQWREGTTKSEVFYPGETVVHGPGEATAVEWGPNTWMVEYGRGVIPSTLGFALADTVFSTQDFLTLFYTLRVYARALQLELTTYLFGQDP

This assay has as its target Sigma non-opioid intracellular receptor 1 (Cavia porcellus) (UniProt Q60492). As to the kind of experiment: The compound was evaluated for binding affinity against sigma receptor using [3H]DTG radioligand in guinea pig membranes.
Broadly, the IC50 is the concentration that gives 50% inhibition. Take `CC(=Nc1ccc(Br)cc1C)Nc1ccc(Br)cc1C` [N,N'-Bis-(4-bromo-2-methyl-phenyl)-acetamidine]: the IC50 came to 0.026 µM.
Next, `CC(=NC12CC3CC(CC(C3)C1)C2)NC12CC3CC(CC(C3)C1)C2` [N,N'-Di-adamantan-1-yl-acetamidine]: 0.016 µM.
Next, `CC(=Nc1ccccc1C)Nc1ccccc1C` [N,N'-Di-o-tolyl-acetamidine; hydrochloride]: 0.015 µM; `CC(=NC12CC3CC(CC(C3)C1)C2)NC1CCCCC1` [N-Adamantan-1-yl-N'-cyclohexyl-acetamidine]: 0.072 µM.
Regarding `CC(=Nc1ccccc1C)NC12CC3CC(CC(C3)C1)C2` [N-Adamantan-1-yl-N'-o-tolyl-acetamidine; hydrochloride], the half-inhibitory concentration (IC50) was 0.006 µM.
Under `CC(=Nc1ccccc1C)NC1CC2CCC1C2` (configuration not stated) [N-Bicyclo[2.2.1]hept-2-yl-N'-o-tolyl-acetamidine] stands 0.009 µM; under `CC(=Nc1ccccc1C)NC1CCCCC1` [N-Cyclohexyl-N'-o-tolyl-acetamidine; hydrochloride], 0.009 µM.

The values above are taken from BindingDB's records for doi:10.1016/S0960-894X(01)81027-1 (1993).
